Legend:
G0S2 mRNA [1] = assay: G0S2 mRNA expression in Hepa1-6 cells (qRT-PCR); format: cell-based, mouse; details: for expression level of G0S2 mRNA: 10 μM, 24 hours; for G0S2 mRNA expression level: 48 hours, vs DMSO
Description: The effect of the compound on the expression level of mRNA of the G0S2 gene was evaluated for the three compounds extracted so far. 24 hours after seeding with Hepa1-6 cells, the cells were exposed to hit compounds at 10 μM and sampling and total RNA extraction were carried out 24 hours later. Subsequently, changes in the expression level of mRNA of the G0S2 gene were measured by a qRT-PCR method.
Hepa1-6 cells were exposed to 10 μM of each of seven derivatives of Compound No. 2 (Examples 2 and 4 to 9) and an effect of the derivative compounds on the expression level of G0S2 mRNA after 24 hours was evaluated.
Therefore, Hepa1-6 cells were exposed to Compound No. 2 and the compound of Example 2 (NS-3-011) in the range of 0.5 to 5 μM and an effect of the compounds on the expression level of endogenous G0S2 mRNA after 48 hours was evaluated.
Subsequently, Hepa1-6 cells were transfected with siRNA against Hsd17b4 or control siRNA in the presence (10 μM) or absence (indicated as “DMSO” in FIG. 22B) of Compound No. 2. Subsequently, each cell was recovered after 48 hours and total RNA was extracted. Subsequently, the expression level of the G0S2 gene was quantified by real-time PCR.

[2] = molecular target: T1, Hsd17b4 (Peroxisomal multifunctional enzyme type 2) (Mus musculus, UniProt P51660); assay: Pull-down assay with avidin beads and LC/MS/MS identification of target protein; format: binding; details: proteins from mouse hepatocytes, avidin beads
T1 construct: Mouse hepatocytes were homogenized to extract proteins from the cytoplasm and nucleus; endogenous in cells; host or cells: mouse hepatocytes (homogenate, cytoplasmic and nuclear proteins)
T1 sequence (P51660 1-735): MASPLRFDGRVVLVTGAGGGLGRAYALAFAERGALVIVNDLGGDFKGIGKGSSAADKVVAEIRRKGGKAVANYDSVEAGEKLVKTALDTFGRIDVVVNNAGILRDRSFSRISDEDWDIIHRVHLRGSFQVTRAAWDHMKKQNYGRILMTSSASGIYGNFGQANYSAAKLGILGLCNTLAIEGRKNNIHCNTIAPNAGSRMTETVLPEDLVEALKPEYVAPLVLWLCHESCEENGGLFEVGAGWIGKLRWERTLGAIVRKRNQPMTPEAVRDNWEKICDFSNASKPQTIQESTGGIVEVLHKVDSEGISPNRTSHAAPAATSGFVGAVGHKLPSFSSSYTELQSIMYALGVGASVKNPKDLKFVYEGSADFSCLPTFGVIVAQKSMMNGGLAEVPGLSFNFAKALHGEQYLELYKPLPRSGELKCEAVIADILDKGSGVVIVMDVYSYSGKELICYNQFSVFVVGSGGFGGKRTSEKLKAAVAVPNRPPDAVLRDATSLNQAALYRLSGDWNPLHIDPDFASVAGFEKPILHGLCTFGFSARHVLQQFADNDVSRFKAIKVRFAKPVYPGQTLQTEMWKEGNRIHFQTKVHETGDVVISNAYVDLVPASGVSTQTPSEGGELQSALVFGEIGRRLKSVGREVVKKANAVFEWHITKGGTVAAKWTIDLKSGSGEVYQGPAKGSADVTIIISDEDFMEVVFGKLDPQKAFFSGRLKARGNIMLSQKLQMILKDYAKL
Description: (§1) Mouse hepatocytes were homogenized to extract proteins from the cytoplasm and nucleus. […] The chemical formulae of Compounds #142 and #151 are shown in General Formulae (13) and (14), respectively.
Thereafter, a pull-down assay was carried out with avidin-labeled magnetic beads (hereinafter, sometimes referred to as “avidin beads”), and the compounds and proteins bound to the avidin beads were subjected to acrylamide gel electrophoresis. The acrylamide gel after subjecting to electrophoresis was negatively stained, a band of a protein specifically bound to Compound #142 was excised, and the protein was identified by an LC/MS/MS analysis.
FIG. 17 is a photograph showing the results of acrylamide gel electrophoresis.

[3] = system: DEN-induced hepatitis/hepatoma mouse model; assay: DEN-induced hepatitis/hepatoma mouse model: hepatoma/tumor formation in liver after 14 weeks; format: in vivo; details: 15 mg/kg in drinking water
Description: Mice of a diethylnitrosamine (DEN)-induced hepatitis/hepatoma mouse model were divided into two groups, one receiving siRNA against G0S2 (G0S2 siRNA-administered group) and the other receiving negative control siRNA (control siRNA-administered group). Administration of siRNA to mice was carried out by tail vein administration of 1.6 nmol/mouse using a nucleic acid transfection reagent (trade name “LipoTrust™ EX Oligo <in vivo>, Hokkaido System Science Co., Ltd.). As the siRNA against G0S2, commercially available siRNA (Life Technologies, Inc., trade name “Stealth siRNA”, catalog number “#1320001”, the base sequence of the antisense strand is set forth in SEQ ID NO: 3) was used. As the control siRNA, a commercially available siRNA (Life Technologies, Inc., the base sequence of the antisense strand is set forth in SEQ ID NO: 4) was used.
Subsequently, mice of the same G0S2 siRNA-administered group and control siRNA-administered group as above were prepared. DEN was added to drinking water at a concentration of 80 mg/L from one day after the administration of siRNA to mice, and mice were sacrificed after 14 weeks of breeding and then subjected to analysis. As a result, the onset of hepatoma was inhibited in mice of the G0S2 siRNA-administered group.
Diethylnitrosamine (DEN) dissolved in water at a concentration of 80 mg/L as drinking water was administered in drinking water to ICR mice, thereby inducing chronic inflammation and hepatoma in the liver. In addition, a group in which 15 mg/kg of the compound of Example 10 (NS-3-086) was administered in drinking water from immediately after the start of administration of DEN in drinking water was prepared. As a control group, a group given tap water as drinking water was used.
Subsequently, mice of each group were sacrificed 14 weeks after the start of administration of DEN in drinking water, and the liver was excised and analyzed. FIGS. 28A, 28B and 28C are photographs of the liver at 14 weeks after the start of administration of DEN in drinking water.

[4] = system: alanine aminotransferase (ALT) activity in serum; assay: Serum ALT activity in DEN-induced hepatitis/hepatoma mouse model; format: in vivo; details: ICR mice, DEN 80 mg/L, 15 mg/kg in drinking water, 8 weeks and 12 weeks
Description: Diethylnitrosamine (DEN) dissolved in water at a concentration of 80 mg/L as drinking water was administered in drinking water to ICR mice, thereby inducing chronic inflammation in the liver. In addition, a group in which 15 mg/kg of the compound of Example 10 (NS-3-086) was administered in drinking water from immediately after the start of administration of DEN in drinking water was prepared. As a control group, a group given tap water as drinking water was used.
Subsequently, 8 weeks and 12 weeks after the start of administration of DEN in drinking water, blood was collected from the tails of mice of each group, and the alanine aminotransferase (ALT) activity in serum was measured using a commercially available kit (“Transaminase CII-Test Wako”, manufactured by Wako Pure Chemical Industries, Ltd.).

G0S2 mRNA [5] = assay: G0S2 mRNA expression in human HepG2 cells; format: cell-based; details: 10 μM, 24 hours
G0S2 promoter = G0S2 promoter luciferase activity in O-4000E cell line, IC50; format: cell-based, mouse; details: Mus musculus, 24 h, O-4000E cells, 24 hours after exposure
Description: The present inventors have searched for a G0S2 gene transcription inhibitor. In searching, the present inventors have received a compound library consisting of 9600 compounds (Core library) from the Open Innovation Center for Drug Discovery, The University of Tokyo. For this compound library, primary screening was carried out by evaluating an effect of compounds on a luciferase activity using a 384-well plate. The drug efficacy evaluation was studied three times for each compound (final concentration of 10 μM) using a cell line stably expressing an expression cassette in which a luciferase gene was ligated to the downstream side of the G0S2 promoter (−2030→−1378), and compounds which reduced a luciferase activity to less than ¼ were extracted from all studies. As a result, 175 compounds were hit.
For the evaluation of drug efficacy of Compound Nos. 1 and 2, which are hit compounds, an IC50 was calculated. The O-4000E cell line was seeded, and Compound Nos. 1 and 2 were serially diluted in […] so as to have final concentrations of 0.15625 μM to 10 μM, followed by exposure of the cells to the compounds. The luciferase activity was measured 24 hours after the exposure, and the curve fitting was carried out to calculate an IC50 of the compounds.
Detailed drug efficacy evaluation at low concentrations was carried out for the compound of Example 2 (NS-3-011) whose drug efficacy at a concentration of less than 10 μM was observed based on the studies so far and which is expected to have an effect equal to or more than that of Compound No. 2. First, using O-4000E cells, IC50 of Compound No. 2 and the compound of Example 2 (NS-3-011) on the G0S2 promoter activity was calculated.

Bmal1 promoter = Bmal1 promoter luciferase assay in MEF cell line; format: cell-based; details: MEF reporter cell line, 10 μM, 24 hours
Description: Therefore, in order to exclude compounds having an effect on clock genes in normal cells, studies were conducted using the MEF cell line stably expressing an expression cassette in which a luciferase gene was ligated to the downstream side of the Bmal1 promoter.

[6] = system: G0S2 promoter (−2030→+10); assay: G0S2 promoter (−2030→+10) luciferase assay in Hepa1-6 cells; format: cell-based, mouse; details: Hepa1-6 reporter cells, 10 μM, 24 hours
Description: To get closer to the environment in the liver, a cell stably expressing an expression cassette in which a luciferase gene was ligated to the downstream side of the G0S2 promoter (−2030→+10) was constructed in the Hepa1-6 cell, which is a mouse hepatoma-derived cell. Using this cell, an effect of the candidate compounds on the luciferase activity was evaluated in the same manner as in the primary screening described above.

[7] = system: nuclear receptor RARα mRNA; assay: RARα mRNA expression in Hepa1-6 cells (qRT-PCR); format: cell-based, mouse; details: 10 μM, 24 hours
Hsd17b4 gene = assay: Hsd17b4 knockdown in Hepa1-6 cells: Hsd17b4 gene expression (real-time PCR); format: cell-based, mouse; details: 48 hours after transfection, vs control siRNA
Source text: Hepα1-6 cells, which are mouse hepatoma-derived cells, were divided into two groups, in which one group was transfected with siRNA against Hsd17b4 and the other group was transfected with control siRNA. The base sequence of the sense strand of siRNA against Hsd17b4 is set forth in SEQ ID NO: 7, and the base sequence of the antisense strand thereof is set forth in SEQ ID NO: 8. In addition, commercially available siRNA (Life Technologies, Inc., the base sequence of the antisense strand is set forth in SEQ ID NO: 4) was used as the control siRNA.
Subsequently, each cell was recovered after 48 hours and total RNA was extracted. Subsequently, the expression level of the Hsd17b4 gene was quantified by real-time PCR.

G0S2 = assay: Inhibition of the expression of G0S2 (stated, test not specified); format: cell-based
Source text: as §1

[8] = ICR mice, DEN 80 mg/L, 14 weeks
[9] = liver, 14 weeks after start of DEN in drinking water

CCCCCCN/C(=N\C(=O)OC(C)(C)C)NCc1ccccc1 [Example 4]
expression level of G0S2 mRNA (G0S2 mRNA [1]): up to the same extent as that of Compound 2

CCCCCCCCCCCCNC(=N)NCc1ccc(OCc2cn(CCOCCOCCOCCNC(=O)CCCC[C@@H]3SC[C@@H]4NC(=O)N[C@@H]43)nn2)cc1 [#142]
protein specifically bound in pull-down assay (band of about 75 kDa) [2]: Hsd17b4

CCCCCCCCCCCCNC(=N)NCc1cc(C(F)(F)F)cc(C(F)(F)F)c1 [Example 10]
hepatic hardening [3, 8]: inhibited | tumor formation in the liver [3, 8]: inhibited | mice (n) with large number of tumors [3, 9]: 0 n | mice (n) with number of tumors 0 [3, 9]: 3 n | mice (n) with number of tumors 1 [3, 9]: 3 n | increase in serum ALT activity by DEN drinking water [4]: inhibited

CCCCCCNC(=N)NCCc1ccccc1 [Example 6]
G0S2 mRNA expression level (G0S2 mRNA [1]; 2.5 μM): significant decrease | G0S2 mRNA expression level (G0S2 mRNA [1]; 5 μM): significant decrease | expression level of G0S2 mRNA (G0S2 mRNA [1]): up to the same extent as that of Compound 2 | expression level of G0S2 mRNA (G0S2 mRNA [5]): significant decrease

CC(=O)Nc1cccc(NC(=O)CSc2nc(=O)n(N3CCN(C)CC3)c3c2CCC3)c1 [Compound No. 1]
IC50 (G0S2 promoter): 5 µM | Bmal1 promoter activity (Bmal1 promoter): no significant change | G0S2 promoter (−2030→+10) activity (relative value) [6]: less than ½ | expression level of nuclear receptor RARα mRNA [7]: no change

siRNA against Hsd17b4: siRNA against Hsd17b4, sense strand SEQ ID NO: 7, antisense strand SEQ ID NO: 8 (sense GAGCAUUAGUCAUUGUGAACGACUU; antisense AAGUCGUUCACAAUGACUAAUGCUC; listed as RNA, chemistry not given here)
expression of Hsd17b4 (Hsd17b4 gene): inhibited

O=C(Nc1cccc(S(=O)(=O)c2cccc(NC(=O)C3CC3)c2)c1)C1CC1 [Compound No. 3]
Bmal1 promoter activity (Bmal1 promoter): no significant change | G0S2 promoter (−2030→+10) activity (relative value) [6]: less than ½ | expression level of nuclear receptor RARα mRNA [7]: significant decrease

N=C(NCCCCCO)NCc1ccccc1 [Comparative Example 1]
inhibition of the expression of G0S2 (G0S2): not inhibiting the expression of G0S2
